Reference: US20040018941A1, “Fused-benzene derivatives of thiouracil, herbicidal and desiccant compositions contaning them” (ISHIHARA SANGYO KAISHA, LTD., priority 2002, published 2004)

Key:
Type in all cases: in vivo
Conditions in all cases: rating 0-100 (0 no damage, 100 complete death), 14 days after application
[1] = tested on: redroot pigweed (Amaranthus retroflexus, AMARE); test: Pre-emerge herbicidal activity, greenhouse screen, AMARE
Description: (§1) A standard greenhouse herbicide activity screening system was used to evaluate the herbicidal efficacy and crop safety of these test compounds. Seven broadleaf weed species including redroot pigweed (Amaranthus retroflexus, AMARE), velvetleaf (Abutilon theophrasti, ABUTH), sicklepod (Cassia obtusifolia, CASOB), ivyleaf morningglory (Ipomoea hederacea, IPOHE), lambsquarters (Chenopodium album, CHEAL), common ragweed (Ambrosia artemisiifolia L., AMBEL), and cocklebur (Xanthium strumarium, XANST) were used as test species. Four grass weed species including green foxtail (Setaria viridis, SETVI), barnyardgrass (Echinochloa crus-galli, ECHCG), johnsongrass (Sorghum halepense, SORHA), and large crabgrass (Digitaria sanguinalis, DIGSA) were also used. In addition, three crop species, field corn (Zea mays L., var. Dekalb 527, CORN), soybean (Glycine max L., var. Pella 86, SOY), and upland rice (Oryza sp., var. Tebonnet, RICE) were included.
(§2) All plants were grown in 10 cm square plastic pots which were filled with a sandy loam soil mix. For pre-emerge tests, seeds were planted one day prior to application of the test compounds. For post-emerge tests, seeds were planted 8-21 days prior to the test to allow emergence and good foliage development prior to application of the test substances. At the time of the post-emerge application, plants of all species were usually at the 2-3 leaf stage of development.
(§3) All test compounds were dissolved in acetone and applied to the test units in a volume of 187 l/ha. Test materials were applied at rates ranging from 15 g ai/ha to 1000 g ai/ha using a track sprayer equipped with a TJ8001 E even flow flat fan spray nozzle. Plants were arranged on a shelf so that the top of the canopy (post-emerge) or top of the soil surface (pre-emerge) was 40-45 cm below the nozzle. Pressurized air was used to force the test solution through the nozzle as it was mechanically advanced over the top of all test plants/pots. This application simulates a typical commercial field herbicide application.
(§4) In the post-emerge test, a commercial non-ionic surfactant was also included (0.25% v/v) to enhance wetting of the leaf surfaces of target plants. Immediately after application, test units of the pre-emerge applications were watered at the soil surface to incorporate the test materials.
(§5) At 14 days after application of the test materials, phytotoxicity ratings were recorded. A rating scale of 0-100 was used as previously described in Research Methods in Weed Science, 2nd edition, B. Truelove, Ed., Southern Weed Science Society, Auburn University, Auburn, Ala., 1977. Briefly, “0” corresponds to no damage and “100” corresponds to complete death of all plants in the test unit. This scale was used both to determine efficacy against weed species and damage to crop species. Herbicide activity data for various compounds of this invention, which are shown by compound No. in Tables 1-7, are shown in Tables 8 and 9.

[2] = tested on: velvetleaf (Abutilon theophrasti, ABUTH); test: Pre-emerge herbicidal activity, greenhouse screen, ABUTH
Description: as §1, §2, §3, §4, §5

[3] = tested on: sicklepod (Cassia obtusifolia, CASOB); test: Pre-emerge herbicidal activity, greenhouse screen, CASOB
Description: as §1, §2, §3, §4, §5

[4] = tested on: ivyleaf morningglory (Ipomoea hederacea, IPOHE); test: Pre-emerge herbicidal activity, greenhouse screen, IPOHE
Description: as §1, §2, §3, §4, §5

[5] = tested on: lambsquarters (Chenopodium album, CHEAL); test: Pre-emerge herbicidal activity, greenhouse screen, CHEAL
Description: as §1, §2, §3, §4, §5

[6] = tested on: common ragweed (Ambrosia artemisiifolia L., AMBEL); test: Pre-emerge herbicidal activity, greenhouse screen, AMBEL
Description: as §1, §2, §3, §4, §5

[7] = tested on: green foxtail (Setaria viridis, SETVI); test: Pre-emerge herbicidal activity, greenhouse screen, SETVI
Description: as §1, §2, §3, §4, §5

[8] = tested on: barnyardgrass (Echinochloa crus-galli, ECHCG); test: Pre-emerge herbicidal activity, greenhouse screen, ECHCG
Description: as §1, §2, §3, §4, §5

[9] = tested on: johnsongrass (Sorghum halepense, SORHA); test: Pre-emerge herbicidal activity, greenhouse screen, SORHA
Description: as §1, §2, §3, §4, §5

[10] = tested on: large crabgrass (Digitaria sanguinalis, DIGSA); test: Pre-emerge herbicidal activity, greenhouse screen, DIGSA
Description: as §1, §2, §3, §4, §5

[11] = tested on: field corn (Zea mays L., var. Dekalb 527, CORN); test: Pre-emerge crop damage, greenhouse screen, CORN
Description: as §1, §2, §3, §4, §5

[12] = tested on: soybean (Glycine max L., var. Pella 86, SOY); test: Pre-emerge crop damage, greenhouse screen, SOY
Description: as §1, §2, §3, §4, §5

[13] = tested on: upland rice (Oryza sp., var. Tebonnet, RICE); test: Pre-emerge crop damage, greenhouse screen, RICE
Description: as §1, §2, §3, §4, §5

[14] = tested on: redroot pigweed (Amaranthus retroflexus, AMARE); test: Post-emerge herbicidal activity, greenhouse screen, AMARE
Description: as §1, §2, §3, §4, §5

[15] = tested on: velvetleaf (Abutilon theophrasti, ABUTH); test: Post-emerge herbicidal activity, greenhouse screen, ABUTH
Description: as §1, §2, §3, §4, §5

[16] = tested on: sicklepod (Cassia obtusifolia, CASOB); test: Post-emerge herbicidal activity, greenhouse screen, CASOB
Description: as §1, §2, §3, §4, §5

[17] = tested on: ivyleaf morningglory (Ipomoea hederacea, IPOHE); test: Post-emerge herbicidal activity, greenhouse screen, IPOHE
Description: as §1, §2, §3, §4, §5

[18] = tested on: lambsquarters (Chenopodium album, CHEAL); test: Post-emerge herbicidal activity, greenhouse screen, CHEAL
Description: as §1, §2, §3, §4, §5

[19] = tested on: common ragweed (Ambrosia artemisiifolia L., AMBEL); test: Post-emerge herbicidal activity, greenhouse screen, AMBEL
Description: as §1, §2, §3, §4, §5

[20] = tested on: green foxtail (Setaria viridis, SETVI); test: Post-emerge herbicidal activity, greenhouse screen, SETVI
Description: as §1, §2, §3, §4, §5

[21] = tested on: barnyardgrass (Echinochloa crus-galli, ECHCG); test: Post-emerge herbicidal activity, greenhouse screen, ECHCG
Description: as §1, §2, §3, §4, §5

[22] = tested on: johnsongrass (Sorghum halepense, SORHA); test: Post-emerge herbicidal activity, greenhouse screen, SORHA
Description: as §1, §2, §3, §4, §5

[23] = tested on: large crabgrass (Digitaria sanguinalis, DIGSA); test: Post-emerge herbicidal activity, greenhouse screen, DIGSA
Description: as §1, §2, §3, §4, §5

[24] = tested on: field corn (Zea mays L., var. Dekalb 527, CORN); test: Post-emerge crop damage, greenhouse screen, CORN
Description: as §1, §2, §3, §4, §5

[25] = tested on: soybean (Glycine max L., var. Pella 86, SOY); test: Post-emerge crop damage, greenhouse screen, SOY
Description: as §1, §2, §3, §4, §5

[26] = tested on: upland rice (Oryza sp., var. Tebonnet, RICE); test: Post-emerge crop damage, greenhouse screen, RICE
Description: as §1, §2, §3, §4, §5

Cn1c(C(F)(F)F)cc(=O)n(-c2ccc(Cl)c3nc(C(C)(C)C)oc23)c1=S [Compound 1-4]
Pre-emerge Herbicidal Activity AMARE ([1]; 63 g ai/ha): 100
Pre-emerge Herbicidal Activity AMARE ([1]; 250 g ai/ha): 100
Pre-emerge Herbicidal Activity ABUTH ([2]; 63 g ai/ha): 100
Pre-emerge Herbicidal Activity ABUTH ([2]; 250 g ai/ha): 100
Pre-emerge Herbicidal Activity CASOB ([3]; 63 g ai/ha): 70
Pre-emerge Herbicidal Activity CASOB ([3]; 250 g ai/ha): 100
Pre-emerge Herbicidal Activity IPOHE ([4]; 63 g ai/ha): 99
Pre-emerge Herbicidal Activity IPOHE ([4]; 250 g ai/ha): 100
Pre-emerge Herbicidal Activity CHEAL ([5]; 63 g ai/ha): 100
Pre-emerge Herbicidal Activity CHEAL ([5]; 250 g ai/ha): 100
Pre-emerge Herbicidal Activity AMBEL ([6]; 63 g ai/ha): 80
Pre-emerge Herbicidal Activity AMBEL ([6]; 250 g ai/ha): 100
Pre-emerge Herbicidal Activity SETVI ([7]; 63 g ai/ha): 100
Pre-emerge Herbicidal Activity SETVI ([7]; 250 g ai/ha): 100
Pre-emerge Herbicidal Activity ECHCG ([8]; 63 g ai/ha): 100
Pre-emerge Herbicidal Activity ECHCG ([8]; 250 g ai/ha): 100
Pre-emerge Herbicidal Activity SORHA ([9]; 63 g ai/ha): 100
Pre-emerge Herbicidal Activity SORHA ([9]; 250 g ai/ha): 100
Pre-emerge Herbicidal Activity DIGSA ([10]; 63 g ai/ha): 100
Pre-emerge Herbicidal Activity DIGSA ([10]; 250 g ai/ha): 100
Pre-emerge Herbicidal Activity CORN (crop damage) ([11]; 63 g ai/ha): 15
Pre-emerge Herbicidal Activity CORN (crop damage) ([11]; 250 g ai/ha): 85
Pre-emerge Herbicidal Activity SOY (crop damage) ([12]; 63 g ai/ha): 10
Pre-emerge Herbicidal Activity SOY (crop damage) ([12]; 250 g ai/ha): 80
Pre-emerge Herbicidal Activity RICE (crop damage) ([13]; 63 g ai/ha): 60
Pre-emerge Herbicidal Activity RICE (crop damage) ([13]; 250 g ai/ha): 90
Post-emerge Herbicidal Activity AMARE ([14]; 63 g ai/ha): 100
Post-emerge Herbicidal Activity AMARE ([14]; 250 g ai/ha): 100
Post-emerge Herbicidal Activity ABUTH ([15]; 63 g ai/ha): 100
Post-emerge Herbicidal Activity ABUTH ([15]; 250 g ai/ha): 100
Post-emerge Herbicidal Activity CASOB ([16]; 63 g ai/ha): 60
Post-emerge Herbicidal Activity CASOB ([16]; 250 g ai/ha): 99
Post-emerge Herbicidal Activity IPOHE ([17]; 63 g ai/ha): 95
Post-emerge Herbicidal Activity IPOHE ([17]; 250 g ai/ha): 100
Post-emerge Herbicidal Activity CHEAL ([18]; 63 g ai/ha): 100
Post-emerge Herbicidal Activity CHEAL ([18]; 250 g ai/ha): 100
Post-emerge Herbicidal Activity AMBEL ([19]; 63 g ai/ha): 90
Post-emerge Herbicidal Activity AMBEL ([19]; 250 g ai/ha): 90
Post-emerge Herbicidal Activity SETVI ([20]; 63 g ai/ha): 50
Post-emerge Herbicidal Activity SETVI ([20]; 250 g ai/ha): 100
Post-emerge Herbicidal Activity ECHCG ([21]; 63 g ai/ha): 90
Post-emerge Herbicidal Activity ECHCG ([21]; 250 g ai/ha): 100
Post-emerge Herbicidal Activity SORHA ([22]; 63 g ai/ha): 20
Post-emerge Herbicidal Activity SORHA ([22]; 250 g ai/ha): 30
Post-emerge Herbicidal Activity DIGSA ([23]; 63 g ai/ha): 0
Post-emerge Herbicidal Activity DIGSA ([23]; 250 g ai/ha): 20
Post-emerge Herbicidal Activity CORN (crop damage) ([24]; 63 g ai/ha): 0
Post-emerge Herbicidal Activity CORN (crop damage) ([24]; 250 g ai/ha): 30
Post-emerge Herbicidal Activity SOY (crop damage) ([25]; 63 g ai/ha): 50
Post-emerge Herbicidal Activity SOY (crop damage) ([25]; 250 g ai/ha): 50
Post-emerge Herbicidal Activity RICE (crop damage) ([26]; 63 g ai/ha): 60
Post-emerge Herbicidal Activity RICE (crop damage) ([26]; 250 g ai/ha): 65
